According to patent US20200283498A1, “T CELL RECEPTOR FUSIONS AND CONJUGATES AND METHODS OF USE THEREOF” (Altor Bioscience LLC, priority 2008, published 2020):

Key:
immune cells = assay type: in vivo, human
Procedure: FIG. 33A is a line graph showing serum IFN-γ levels (determined by ELISA analysis) of subjects following treatment with 0.04 mg/kg ALT-801 (MTD level). FIG. 33B is a line graph showing IFN-γ ELISPOT analysis of PBMCs for subjects treated with 0.04 mg/kg ALT-801 (MTD level). Peripheral blood mononuclear cells (PBMCs) were prepared from samples collected pre-dosing (Cycles 1 & 2) and 2 hours after the drug infusion of dose 3 and 7. Following overnight incubation in medium alone or medium containing ALT-801, p53-positive A375 tumor cells or ALT-801+A375 tumor cells, activated immune effector cells were measured using ELISPOT for IFN-γ production
Based on PK profile, the IL-2 receptors on the surface of immune cells (i.e. NK cells and T-cells) in the patient are anticipated to be fully occupied by the ALT-801 circulating in the patient's serum when a dose of 0.015 mg/kg or higher is administered. […] IFN-γ is produced by activated NK and T-cells and its induction by ALT-801 likely correlates with an increase in effector cell cytolytic activity that plays a role in the antitumor responses. […] Thus the lack of treatment-related TNF-α expression may contribute to the reduced toxicity observed with ALT-801 treatment compared with high-dose IL-2.
The effects of ALT-801 on cell-mediated immune responses were also examined in treated patients. Blood samples were collected from subjects at pre-dosing on the first study drug infusion day and 2 hours after the drug infusion on the third drug infusion day during the first and second treatment cycles. Peripheral blood mononuclear cells (PBMCs) were prepared and incubated overnight in medium alone or medium containing ALT-801, p53-positive A375 tumor cells or ALT-801+A375 tumor cells. Levels of activated immune effector cells were measured using ELISPOT for interferon-gamma (IFN-γ) production. […] These cells were not found in the blood during the treatment cycle (i.e. Dose 3 and Dose 7 samples), consistent with lymphocyte migration to the tumor site. […] Together, these findings indicate that ALT-801 treatment at the MTD level provided favorable pharmacokinetics and immunostimulatory activity necessary for antitumor responses.

[1] = test system: human PBMCs and purified NK cells; experiment: In vitro activation of human PBMCs and purified NK cells by ALT-801; assay type: cell-based; details: concentrations observed in patients; overnight incubation
[2] = test system: metastatic malignancies that express HLA-A2/p53 peptide complexes; experiment: Phase I/IIa clinical study of ALT-801: tumor assessment (RECIST); assay type: in vivo, human
Procedure: FIG. 35 sets forth Table 2 depicting preliminary tumor assessment for evaluable subjects treated with 0.015, 0.04 or 0.08 mg/kg ALT-801. […] For SD (highlighted), change in target lesions compared to baseline is indicated at week 7 or 11 after the first dose.
ALT-801 is currently being evaluated in a multi-course dose-escalation Phase I/IIa clinical study in patients with metastatic malignancies that express HLA-A2/p53 peptide complexes, the antigenic target of ALT-801. The primary endpoints in this dose-escalation study are to evaluate the safety, determine the maximum-tolerated dose (MTD), and characterize the pharmacokinetic profile of ALT-801 administered to patients with progressive metastatic malignancies. Secondary endpoints include evaluation of ALT-801 immunogenicity and assessment of the patient's immune response and anti-tumor response. Each subject enrolled receives up to a total of 8 doses of the study drug in the following schedule: once daily as an intravenous bolus for the first 4 days (cycle 1), followed by a 10-day rest period of no study drug treatment (rest period) and then once daily as an intravenous bolus for an additional 4 days (cycle 2). The trial design includes a dose escalation phase of 3-6 subjects/cohort with starting dose of 0.015 mg/kg (equivalent to approximately 50,000 IL-2 IU/kg) and an expansion phase with 10 additional patients treated at the MTD level. At least 23 patients have been treated with at least one dose of ALT-801 at the 0.015 mg/kg (4 patients), 0.04 mg/kg (13 patients) and 0.08 mg/kg (6 patients).
The effects of ALT-801 on tumors was assessed based on RECIST criteria by comparing baseline (pre-dose) CT scans with those taken in follow-up visits at week 7 and 11.

[3] = test system: human NSCLC A549-A2 tumor cells; experiment: Adoptive transfer of preincubated NK cells in A549-A2 experimental metastasis model; assay type: in vivo, athymic nude mice; details: CTX 200 mg/kg ip days 14, 21; NK cells preincubated with the protein iv days 16, 22 (CTX group: no NK cells)

## ALT-801: recombinant humanized soluble single-chain TCR-cytokine fusion protein: human TCR β constant domain, murine TCR antigen-binding regions, human IL2; p53 (aa 264-272)/HLA-A2.1 specific
Immune cells; 0.04 mg/kg or 0.08 mg/kg
  serum IFN-γ induction by dose level: equivalent levels of serum IFN-γ induction that were higher than those observed at the 0.015 mg/kg dose level
Immune cells; 4-8 hours after dosing, particularly following the fourth dose
  serum IFN-γ concentrations: increase in serum IFN-γ concentrations
Immune cells; Pre-dose Cycle-2 sample
  immune cells responsive to ALT-801+A375 tumor cells (ELISPOT): increase in immune cells responsive to ALT-801+A375 tumor cells
Immune cells; during the 2-cycle course of treatment
  IFN-γ-positive cells in blood (ELISPOT): little or no increase in IFN-γ-positive cells
[1]
  activation of human PBMCs and purified NK cells: able to fully activate human PBMCs and purified NK cells
[2]; 11 weeks after treatment
  patients with stable disease status: approximately 50%
[2]; cohort 3 subjects with stable disease
  tumor shrinkage: up to 23%
[2]; six evaluated subjects
  subjects with stable disease, cohort 3: four (three with melanoma and one with renal cell carcinoma) of six evaluated subjects of cohort 3 showed stable disease
[2]; six subjects
  subjects with stable disease, cohort 2: three (prostate cancer, head and neck cancer and renal cell carcinoma) have achieved stable disease status
[2]; subject 02004 Metastatic Head and Neck, second course 0.04 mg/kg, over 9 month
  change in target lesion LD compared to baseline: −3.3%
[3]
  Median survival: 85.5 days
